We go through 6 compounds from ChEMBL document CHEMBL5614420, “Development of peptoid-based heteroaryl-decorated histone deacetylase (HDAC) inhibitors with dual-stage antiplasmodial activity” (Eur J Med Chem, 2024).

A word on the half-life: it is how long it takes for the measured level to halve. A word on the microsomal CLint: it is a measure of how fast metabolising enzymes remove a compound, apart from limits set by blood flow. As usually defined, the IC50 is the concentration needed to halve the response being measured.

Molecules are shown by their SMILES. Where only a bound is given, the exact number is not on record here.

Data set [1] is described as follows: in vitro. The conditions noted are these: human, liver microsomes. In general terms: Microsomes from liver hold many membrane-bound enzymes, among them those of drug oxidation.
Data set [2] is described as follows: Selectivity index, ratio of IC50 for HEK293 cells to IC50 for CQ-sensitive asexual ring-stage Plasmodium falciparum 3D7 infected in erythrocytes. The conditions noted are these: human.
A short description of data set [3]: Selectivity index, ratio of IC50 for HEK293 cells to IC50 for exo-erythrocytic stage Plasmodium berghei sporozoites expressing GFP-Luc fused genes infected in human HepG2-A16-CD81 cells expressing EGFP. The format is toxicity, cell-based. The conditions noted are these: read-out: Ratio IC50.
Data set [4] can be described thus: in vitro. The conditions noted are these: human, liver microsomes. This is another data set of the same source.
Data set [5] relates to Plasmodium falciparum. Put plainly: Resistance index, ratio of IC50 for multidrug-resistant asexual ring-stage Plasmodium falciparum Dd2 infected in erythrocytes to IC50 for CQ-sensitive asexual ring-stage Plasmodium falciparum 3D7 infected in erythrocytes. Format: functional.
Data set [6] can be described thus: Cytotoxicity against HEK293 cells incubated for 24 hrs by Neutral Red Uptake assay. The conditions noted are these: human.
A short description of data set [7]: Selectivity index, ratio of IC50 for HEK293 cells to IC50 for multidrug-resistant asexual ring-stage Plasmodium falciparum Dd2 infected in erythrocytes. The conditions noted are these: human.
Data set [8] has as its system Plasmodium falciparum. The experiment in a line: Antiplasmodial activity against CQ-sensitive asexual ring-stage Plasmodium falciparum 3D7 infected in erythrocytes assessed as parasitic growth inhibition measured after 72 hrs by ELISA. Particulars: 3D7, Erythrocyte. Format: functional, organism-based. On the technique in general: ELISA stands for enzyme-linked immunosorbent assay.

Data set [9] concerns Plasmodium berghei. Put plainly: Antiplasmodial activity against exo-erythrocytic stage Plasmodium berghei sporozoites expressing ANKA-GFPLuc-SMCON infected in human HepG2-A16-CD81 cells expressing EGFP assessed as parasitic growth inhibition by […]. The format is functional, organism-based.
The test system of data set [10] is Plasmodium falciparum. Put plainly: Antiplasmodial activity against multidrug-resistant asexual ring-stage Plasmodium falciparum Dd2 infected in erythrocytes assessed as parasitic growth inhibition measured after 72 hrs by ELISA. Format: functional, organism-based. Particulars: Dd2, Erythrocyte.
For data set [11], the system named is Plasmodium berghei. The experiment in a line: Antiplasmodial activity against exo-erythrocytic stage Plasmodium berghei sporozoites expressing GFP-Luc fused genes infected in human HepG2-A16-CD81 cells expressing EGFP assessed as parasitic growth inhibition measured for 20 hrs by Bright-Glo Luciferase Assay. Format: functional, organism-based. The conditions noted are these: HepG2-A16-CD81, 20 h.

Data set [12] concerns Plasmodium falciparum. The experiment in a line: Antiplasmodial activity against synchronous ring-stage Plasmodium falciparum Dd2 infected in human erythrocytes assessed as parasitic growth inhibition measured after 48 hrs by [3H]hypoxanthine incorporation assay. Format: functional, organism-based. The conditions noted are these: Dd2, Erythrocyte.
Data set [13] in a line: Cytotoxicity against human NFF cells incubated for 72 hrs by SRB assay.
The nature of data set [14]: Selectivity index, ratio of IC50 for human NFF cells to IC50 for synchronous ring-stage Plasmodium falciparum 3D7 infected in human erythrocytes.
Data set [15] concerns Plasmodium falciparum. Put plainly: Antiplasmodial activity against synchronous ring-stage Plasmodium falciparum 3D7 infected in human erythrocytes assessed as parasitic growth inhibition measured after 48 hrs by [3H]hypoxanthine incorporation assay. The format is functional, organism-based. The conditions noted are these: 3D7, Erythrocyte.

With `CC(C)c1ccc(C(=O)N(CC(=O)NCc2ccccc2)Cc2ccc(C(=O)NO)cc2)cc1`, the half-life at 1 h, 1 µM in “in vitro [1]” turned out to be 12.4 min. The selectivity ratio in data set [2] was found to be 1100; in [3], 4310; in [7], 284. This compound also gave a microsomal CLint at 1 h, 1 µM in “in vitro [4]” of 112 µL/min/mg. Besides, in the data set on Plasmodium falciparum [5], the “Ratio IC50” value is reported as 4. This compound also yielded an IC50 at 24 h in data set [6] of 69000 nM. Also, the IC50 in the data set with Plasmodium falciparum [8] came to 63 nM; in the data set with Plasmodium berghei [9], 16 nM; with Plasmodium falciparum [10], 243 nM.

Turning to `O=C1C(O)=C([C@H]2CC[C@H](c3ccc(Cl)cc3)CC2)C(=O)c2ccccc21` [ATOVAQUONE], the IC50 in the data set on Plasmodium berghei [11] was under 0.051 nM.

Take `O=C(/C=C/c1cccc(S(=O)(=O)Nc2ccccc2)c1)NO` [BELINOSTAT]: the IC50 with Plasmodium falciparum [12] came out at 130 nM; in the data set with Plasmodium falciparum [15] it was 60 nM. In data set [13], this compound showed an IC50 at 72 h of 2370 nM. Also, the selectivity ratio in data set [14] is 40.

In the case of `CCN(CC)CCCC(C)Nc1ccnc2cc(Cl)ccc12` (configuration not stated) [CHLOROQUINE], the IC50 at 24 h in [6] was 265000 nM.

Regarding `Cc1[nH]c2ccccc2c1CCNCc1ccc(/C=C/C(=O)NO)cc1` [PANOBINOSTAT], the IC50 stood at 30 nM with Plasmodium falciparum [12] and 10 nM in the data set with Plasmodium falciparum [15]. Moreover, the midpoint of inhibition in data set [13], the IC50 at 72 h, lay at 70 nM. Further, in data set [14], the selectivity ratio amounted to 7.

Turning to `C/C=C1\NC(=O)[C@H]2CSSCC/C=C/[C@H](CC(=O)N[C@H](C(C)C)C(=O)N2)OC(=O)[C@H](C(C)C)NC1=O` [ROMIDEPSIN], the IC50 at 72 h in data set [13] amounted to 1 nM. Besides, the selectivity ratio in data set [14] is under 1.
